Source: patent US20160122342A1, “ENHANCER OF ZESTE HOMOLOG 2 INHIBITORS” (GLAXOSMITHKLINE INTELLECTUAL PROPERTY (NO.2) LIMITED, priority 2013, published 2016)
pIC50: −log10 of the molar value. Where a name gives a salt, the structure may show the parent alone.

Molecular target: T1, EZH2 within the PRC2 complex (Homo sapiens, UniProt Q15910)
T1 construct: FLAG; made in house; host or cells: Sf9 cells
Assay: Assay Protocol 2: EZH2 methyltransferase scintillation proximity assay, biotinylated histone H3 peptide substrate
Type: biochemical
Conditions: SPA, 3H-SAM, biotinylated unmethylated histone H3K27 peptide substrate, 5-member PRC2 complex
Protocol: Compounds contained herein were evaluated for their ability to inhibit the methyltransferase activity of EZH2 within the PRC2 complex. […] The peptides were captured on streptavidin-coated SPA beads and the resulting signal was read on a ViewLux plate reader. • 4. Prepare 10 mM stock of compounds from solid in 100% DMSO. • 5. […] Dispense 10 nL of compound from the dilution plate into reaction plates (Corning, 384-well polystyrene NBS, Cat#3673). Prepare the following solutions: • 7. 1× Base Buffer, 50 mM Tris-HCl, pH 8, 2 mM MgCl2: Per 1 L of base buffer, combine 1 M Tris-HCl, pH 8 (50 mL), 1 M MgCl2 (2 mL), and distilled water (948 mL). • 8. 1× Assay Buffer: Per 10 mL of 1× Assay Buffer, combine 1× Base Buffer (9.96 mL), 1 M DTT (40 uL), and 10% Tween-20 (1 uL) to provide a final concentration of 50 mM Tris-HCl, pH 8, 2 mM MgCl2, 4 mM DTT, 0.001% Tween-20. • 9. 2× Enzyme Solution: […] SPA Bead Solution: Per 1 mL of SPA Bead Solution, combine Streptavidin coated SPA beads (PerkinElmer, Cat# RPNQ0261, 40 mg) and 1× Assay Buffer (1 mL) to provide a working concentration of 40 mg/mL. • 11. 2× Substrate Solution: Per 10 mL of 2× Substrate Solution, combine 40 mg/mL SPA Bead Solution (375 uL), 1 mM biotinylated histone H3K27 peptide (200 uL), 12.5 uM 3H-SAM (240 uL; 1 mCi/mL), 1 mM cold SAM (57 uL), and 1× Assay Buffer (9.13 mL) to provide a final concentration of 0.75 mg/mL SPA Bead Solution, 10 uM biotinylated histone H3K27 peptide, 0.15 uM 3H-SAM (˜12 uCi/mL 3H-SAM), and 2.85 uM cold SAM. • 12. 2.67× Quench Solution: Per 10 mL of 2.67× Quench Solution, combine 1× Assay Buffer (9.73 mL) and 10 mM cold SAM (267 uL) to provide a final concentration of 100 uM cold SAM. • 3. […] Dispense 5 uL/well of 1× Assay Buffer to column 18 (low control reactions). • 11. Dispense 5 uL/well of 2× Substrate Solution to columns 1-24 (note: substrate solution should be mixed to ensure homogeneous bead suspension before dispensing into matrix reservoir). • 12. Dispense 5 uL/well of 2× Enzyme Solution to columns 1-17, 19-24. • 13. Incubate the reaction for 60 min at room temperature. • 5. Dispense 6 uL/well of the 2.67× Quench Solution to columns 1-24. • 6. Seal assay plates and spin for ˜1 min at 500 rpm. • 7. Dark adapt plates in the ViewLux instrument for 15-60 min. • 2. Read the assay plates on the Viewlux Plate Reader utilizing the 613 nm emission filter or clear filter (300 s exposure). Reagent addition can be done manually or with automated liquid handler. Percent inhibition was calculated relative to the DMSO control for each compound concentration and the resulting values were fit using standard IC50 fitting parameters within the ABASE data fitting software package.

T1 sequence (Q15910 whole entry): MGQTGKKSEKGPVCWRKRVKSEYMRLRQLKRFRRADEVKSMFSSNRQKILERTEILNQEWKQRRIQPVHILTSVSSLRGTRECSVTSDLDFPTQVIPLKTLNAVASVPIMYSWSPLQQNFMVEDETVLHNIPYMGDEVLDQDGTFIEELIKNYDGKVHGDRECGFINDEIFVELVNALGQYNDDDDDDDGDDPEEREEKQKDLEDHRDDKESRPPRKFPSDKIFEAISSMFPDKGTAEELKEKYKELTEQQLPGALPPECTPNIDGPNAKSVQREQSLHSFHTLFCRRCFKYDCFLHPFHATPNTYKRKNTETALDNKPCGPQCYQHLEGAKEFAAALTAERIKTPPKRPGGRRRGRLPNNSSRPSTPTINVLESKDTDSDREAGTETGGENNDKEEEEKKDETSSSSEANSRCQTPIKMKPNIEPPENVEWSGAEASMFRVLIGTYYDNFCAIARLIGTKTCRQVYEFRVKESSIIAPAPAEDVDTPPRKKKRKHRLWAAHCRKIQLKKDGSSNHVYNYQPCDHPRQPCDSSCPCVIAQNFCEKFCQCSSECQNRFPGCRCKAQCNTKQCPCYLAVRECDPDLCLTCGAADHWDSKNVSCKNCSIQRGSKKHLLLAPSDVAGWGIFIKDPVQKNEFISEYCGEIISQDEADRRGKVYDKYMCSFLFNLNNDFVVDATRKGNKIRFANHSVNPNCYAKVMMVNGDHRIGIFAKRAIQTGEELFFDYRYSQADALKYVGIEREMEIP
T1 sequence (O75530 whole entry partner): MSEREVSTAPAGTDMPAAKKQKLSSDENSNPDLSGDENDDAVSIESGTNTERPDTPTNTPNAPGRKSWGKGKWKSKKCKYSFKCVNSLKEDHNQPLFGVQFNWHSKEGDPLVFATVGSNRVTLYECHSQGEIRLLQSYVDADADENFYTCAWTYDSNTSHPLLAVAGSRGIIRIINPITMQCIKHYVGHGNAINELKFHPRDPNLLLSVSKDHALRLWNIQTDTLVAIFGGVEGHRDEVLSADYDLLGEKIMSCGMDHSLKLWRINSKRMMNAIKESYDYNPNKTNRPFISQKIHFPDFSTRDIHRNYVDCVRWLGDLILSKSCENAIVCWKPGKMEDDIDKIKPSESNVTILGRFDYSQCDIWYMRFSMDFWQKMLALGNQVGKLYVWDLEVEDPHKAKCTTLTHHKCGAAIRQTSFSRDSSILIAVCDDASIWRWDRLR
T1 sequence (Q15022 whole entry partner): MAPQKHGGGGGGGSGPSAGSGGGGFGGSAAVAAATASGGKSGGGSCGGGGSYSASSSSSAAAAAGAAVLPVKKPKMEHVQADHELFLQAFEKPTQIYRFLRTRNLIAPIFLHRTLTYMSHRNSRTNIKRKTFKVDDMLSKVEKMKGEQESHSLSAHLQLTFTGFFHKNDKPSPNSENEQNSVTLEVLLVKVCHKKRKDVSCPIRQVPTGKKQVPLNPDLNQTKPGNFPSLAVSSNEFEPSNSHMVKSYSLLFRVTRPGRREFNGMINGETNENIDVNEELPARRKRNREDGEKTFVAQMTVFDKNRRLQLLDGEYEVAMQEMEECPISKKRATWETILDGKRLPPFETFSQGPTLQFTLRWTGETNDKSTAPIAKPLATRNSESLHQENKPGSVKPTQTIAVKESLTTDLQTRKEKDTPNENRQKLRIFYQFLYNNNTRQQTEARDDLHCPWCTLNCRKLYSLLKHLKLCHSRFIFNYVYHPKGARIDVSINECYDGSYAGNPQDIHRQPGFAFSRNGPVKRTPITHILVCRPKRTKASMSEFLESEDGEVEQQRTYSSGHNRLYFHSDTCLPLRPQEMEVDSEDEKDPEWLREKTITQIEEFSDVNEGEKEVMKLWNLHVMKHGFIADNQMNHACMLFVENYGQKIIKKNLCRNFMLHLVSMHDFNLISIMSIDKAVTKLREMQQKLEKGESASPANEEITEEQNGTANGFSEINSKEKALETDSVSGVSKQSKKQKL
T1 sequence (Q09028 whole entry partner): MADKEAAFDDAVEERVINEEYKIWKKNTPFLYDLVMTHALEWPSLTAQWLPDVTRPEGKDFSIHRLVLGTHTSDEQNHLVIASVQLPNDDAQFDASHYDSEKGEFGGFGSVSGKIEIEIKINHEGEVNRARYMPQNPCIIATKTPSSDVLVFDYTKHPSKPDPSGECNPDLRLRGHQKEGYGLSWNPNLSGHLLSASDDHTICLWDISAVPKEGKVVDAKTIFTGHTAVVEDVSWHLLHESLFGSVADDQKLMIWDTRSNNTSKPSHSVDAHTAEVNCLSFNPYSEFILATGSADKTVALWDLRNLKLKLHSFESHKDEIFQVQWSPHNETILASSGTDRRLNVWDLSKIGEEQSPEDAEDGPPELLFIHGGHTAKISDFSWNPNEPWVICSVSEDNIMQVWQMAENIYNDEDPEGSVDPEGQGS
T1 sequence (Q6ZN18 whole entry partner): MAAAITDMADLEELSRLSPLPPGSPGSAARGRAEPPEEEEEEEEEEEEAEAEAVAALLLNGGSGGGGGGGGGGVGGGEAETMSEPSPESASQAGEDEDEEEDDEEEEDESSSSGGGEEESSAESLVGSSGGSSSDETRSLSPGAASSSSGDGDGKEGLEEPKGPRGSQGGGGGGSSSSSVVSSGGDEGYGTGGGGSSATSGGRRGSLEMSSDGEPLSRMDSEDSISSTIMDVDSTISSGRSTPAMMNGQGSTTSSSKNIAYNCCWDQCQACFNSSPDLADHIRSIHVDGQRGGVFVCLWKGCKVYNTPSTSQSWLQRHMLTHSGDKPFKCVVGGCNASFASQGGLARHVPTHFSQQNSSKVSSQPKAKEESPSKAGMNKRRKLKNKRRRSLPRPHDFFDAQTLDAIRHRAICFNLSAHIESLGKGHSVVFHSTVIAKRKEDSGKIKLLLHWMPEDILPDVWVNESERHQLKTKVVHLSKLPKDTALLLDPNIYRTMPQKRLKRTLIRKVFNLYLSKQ

Structure (SMILES)	pIC50
CCN(c1cccc2c1C/C=C/CCc1cc(C)[nH]c(=O)c1CNC2=O)C1CCC2(CC1)CN(C)C2 [Example 67, (E)-10-(ethyl(2-methyl-2-azaspiro[3.5]nonan-7-yl)amino)-3-methyl-5,6,15,16-tetrahydrobenzo[c]pyrido[4,3-j][1]azacyclododecine-1,14(2H,9H)-dione]	7.00
CCN(c1cccc2c1C/C=C/CCc1cc(C)[nH]c(=O)c1CNC2=O)C1CC2(CCNCC2)C1 [Example 68, (E)-10-(ethyl(7-azaspiro[3.5]nonan-2-yl)amino)-3-methyl-5,6,15,16-tetrahydrobenzo[c]pyrido[4,3-j][1]azacyclododecine-1,14(2H,9H)-dione]	6.90
CCN(c1cccc2c1C/C=C/CCc1cc(C)[nH]c(=O)c1CNC2=O)C1CC2(CCN(C)CC2)C1 [Example 69, (E)-10-(ethyl(7-methyl-7-azaspiro[3.5]nonan-2-yl)amino)-3-methyl-5,6,15,16-tetrahydrobenzo[c]pyrido[4,3-j][1]azacyclododecine-1,14(2H,9H)-dione]	6.80
CCN(c1cccc2c1C/C=C/CCc1cc(C)[nH]c(=O)c1CNC2=O)C1CC2(CC(N)C2)C1 (centres unmarked) [Example 70, (E)-10-((6-aminospiro[3.3]heptan-2-yl)(ethyl)amino)-3-methyl-5,6,15,16-tetrahydrobenzo[c]pyrido[4,3-j][1]azacyclododecine-1,14(2H,9H)-dione]	6.90
CCN(c1cccc2c1C/C=C/CCc1cc(C)[nH]c(=O)c1CNC2=O)C1CC2(CC(N(C)C)C2)C1 (centres unmarked) [Example 71, (E)-10-((6-(dimethylamino)spiro[3.3]heptan-2-yl)(ethyl)amino)-3-methyl-5,6,15,16-tetrahydrobenzo[c]pyrido[4,3-j][1]azacyclododecine-1,14(2H,9H)-dione]	6.60
CCN(c1cccc2c1C/C=C/CCc1cc(C)[nH]c(=O)c1CNC2=O)C1CC2(C1)CN(C)C2 [Example 72, (E)-10-(ethyl(2-methyl-2-azaspiro[3.3]heptan-6-yl)amino)-3-methyl-5,6,15,16-tetrahydrobenzo[c]pyrido[4,3-j][1]azacyclododecine-1,14(2H,9H)-dione]	7.10
CCN(c1cccc2c1C/C=C/CCc1cc(C)[nH]c(=O)c1CNC2=O)[C@H]1CC[C@H](NC)CC1 [Example 73, (E)-10-(ethyl(trans-4-(methylamino)cyclohexyl)amino)-3-methyl-5,6,15,16-tetrahydrobenzo[c]pyrido[4,3-j][1]azacyclododecine-1,14(2H,9H)-dione formic acid salt]	6.90
CCN(c1cccc2c1C/C=C/CCc1cc(C)[nH]c(=O)c1CNC2=O)[C@H]1CC[C@@H](NC)CC1 [Example 74, (E)-10-(ethyl(cis-4-(methylamino)cyclohexyl)amino)-3-methyl-5,6,15,16-tetrahydrobenzo[c]pyrido[4,3-j][1]azacyclododecine-1,14(2H,9H)-dione formic acid salt]	6.80
CCN(c1cccc2c1C/C=C/CCc1cc(C)[nH]c(=O)c1CNC2=O)[C@H]1CC[C@@H](N2CC(F)C2)CC1 [Example 75, (E)-10-(ethyl(cis-4-(3-fluoroazetidin-1-yl)cyclohexyl)amino)-3-methyl-5,6,15,16-tetrahydrobenzo[c]pyrido[4,3-j][1]azacyclododecine-1,14(2H,9H)-dione]	6.60
CCN(c1cccc2c1C/C=C/CCc1cc(C)[nH]c(=O)c1CNC2=O)[C@H]1CC[C@H](N2CC(F)C2)CC1 [Example 76, (E)-10-(ethyl(trans-4-(3-fluoroazetidin-1-yl)cyclohexyl)amino)-3-methyl-5,6,15,16-tetrahydrobenzo[c]pyrido[4,3-j][1]azacyclododecine-1,14(2H,9H)-dione]	6.90
CCN(c1cccc2c1C/C=C/CCc1cc(C)[nH]c(=O)c1CNC2=O)C1CCCNCC1 (centres unmarked) [Example 77, (E)-10-(azepan-4-yl(ethyl)amino)-3-methyl-5,6,15,16-tetrahydrobenzo[c]pyrido[4,3-j][1]azacyclododecine-1,14(2H,9H)-dione]	6.80
CCN(c1cccc2c1C/C=C/CCc1cc(C)[nH]c(=O)c1CNC2=O)[C@H]1CC[C@@H](O)CC1 [Example 78, (E)-10-(ethyl(cis-4-hydroxycyclohexyl)amino)-3-methyl-5,6,15,16-tetrahydrobenzo[c]pyrido[4,3-j][1]azacyclododecine-1,14(2H,9H)-dione]	6.80
CCN(c1cccc2c1C/C=C/CCc1cc(C)[nH]c(=O)c1CNC2=O)[C@H]1CC[C@H](O)CC1 [Example 79, (E)-10-(ethyl(trans-4-hydroxycyclohexyl)amino)-3-methyl-5,6,15,16-tetrahydrobenzo[c]pyrido[4,3-j][1]azacyclododecine-1,14(2H,9H)-dione]	6.90
CCN(c1cccc2c1C/C=C/CCc1cc(C)[nH]c(=O)c1CNC2=O)[C@H]1CC[C@@H](N2CC(F)(F)C2)CC1 [Example 80, (E)-10-((cis-4-(3,3-difluoroazetidin-1-yl)cyclohexyl)(ethyl)amino)-3-methyl-5,6,15,16-tetrahydrobenzo[c]pyrido[4,3-j][1]azacyclododecine-1,14(2H,9H)-dione]	6.70
CCN(c1cccc2c1C/C=C/CCc1cc(C)[nH]c(=O)c1CNC2=O)[C@H]1CC[C@H](N2CC(F)(F)C2)CC1 [Example 81, (E)-10-((trans-4-(3,3-difluoroazetidin-1-yl)cyclohexyl)(ethyl)amino)-3-methyl-5,6,15,16-tetrahydrobenzo[c]pyrido[4,3-j][1]azacyclododecine-1,14(2H,9H)-dione]	6.70
CCN(c1cccc2c1C/C=C/CCc1cc(C)[nH]c(=O)c1CNC2=O)[C@H]1CC[C@@H](NCCC(F)(F)F)CC1 [Example 82, (E)-10-(ethyl(cis-4-((3,3,3-trifluoropropyl)amino)cyclohexyl)amino)-3-methyl-5,6,15,16-tetrahydrobenzo[c]pyrido[4,3-j][1]azacyclododecine-1,14(2H,9H)-dione]	6.60
CCN(c1cccc2c1C/C=C/CCc1cc(C)[nH]c(=O)c1CNC2=O)[C@H]1CC[C@H](NCCC(F)(F)F)CC1 [Example 83, (E)-10-(ethyl(trans-4-((3,3,3-trifluoropropyl)amino)cyclohexyl)amino)-3-methyl-5,6,15,16-tetrahydrobenzo[c]pyrido[4,3-j][1]azacyclododecine-1,14(2H,9H)-dione]	6.80
Cc1cc2c(c(=O)[nH]1)CNC(=O)c1cccc(O[C@H]3CC[C@H](N(C)C)CC3)c1C/C=C/CC2 [Example 84, (E)-10-((trans-4-(dimethylamino)cyclohexyl)oxy)-3-methyl-5,6,15,16-tetrahydrobenzo[c]pyrido[4,3-j][1]azacyclododecine-1,14(2H,9H)-dione]	6.70
Cc1cc2c(c(=O)[nH]1)CNC(=O)c1cccc(O[C@H]3CC[C@H](N(C)C)CC3)c1C/C=C\CC2 [Example 85, (Z)-10-((trans-4-(dimethylamino)cyclohexyl)oxy)-3-methyl-5,6,15,16-tetrahydrobenzo[c]pyrido[4,3-j][1]azacyclododecine-1,14(2H,9H)-dione]	5.30
CCN(c1cccc2c1C/C=C/CCc1cc(C)[nH]c(=O)c1CNC2=O)[C@H]1CC[C@@H](N2CCOCC2)CC1 [Example 86, (E)-10-(ethyl(cis-4-morpholinocyclohexyl)amino)-3-methyl-5,6,15,16-tetrahydrobenzo[c]pyrido[4,3-j][1]azacyclododecine-1,14(2H,9H)-dione]	6.70
